One assay addresses Mcl-1 protein (UniProtKB primary accession number: Q07820) (Homo sapiens, UniProt Q07820). The assay is described as follows: Inhibition of Mcl-1 by fluorescence polarisation, Method 1. Format: binding. The following applies: fluorescence polarisation test; Method 2 values are underlined in the patent (underlining not visible here); read-out: IC50 (M) Mcl-1 FP. Summed up: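 Buffer of 10 mM HEPES pH 7.4 with 150 mM NaCl and 0.05% Tween 20 held 5 nM Mcl-1 and 1 nM fluorescein-tagged ligand (final). Compounds were tested as 11-point serial dilutions at 5% final DMSO, and binding was read by FP.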
In general terms: In fluorescence polarisation assays a small probe gives low polarisation when free and higher when bound to something large.

In assay [1] the test system is H929 multiple myeloma tumour line. Description: In vitro cytotoxicity, Microculture Tetrazolium Assay. The following applies: Homo sapiens, NCI-H929, 48 h, H929 cells, 48 hours exposure, MTT; read-out: IC50 (μM) MTT H929. It counts as cell-based. The procedure:
The cytotoxicity studies were carried out on the H929 multiple myeloma tumour line.
The cells are distributed onto microplates and exposed to the test compounds for 48 hours.

Structures are written as SMILES.

Sequence of Mcl-1 protein (Q07820 whole entry): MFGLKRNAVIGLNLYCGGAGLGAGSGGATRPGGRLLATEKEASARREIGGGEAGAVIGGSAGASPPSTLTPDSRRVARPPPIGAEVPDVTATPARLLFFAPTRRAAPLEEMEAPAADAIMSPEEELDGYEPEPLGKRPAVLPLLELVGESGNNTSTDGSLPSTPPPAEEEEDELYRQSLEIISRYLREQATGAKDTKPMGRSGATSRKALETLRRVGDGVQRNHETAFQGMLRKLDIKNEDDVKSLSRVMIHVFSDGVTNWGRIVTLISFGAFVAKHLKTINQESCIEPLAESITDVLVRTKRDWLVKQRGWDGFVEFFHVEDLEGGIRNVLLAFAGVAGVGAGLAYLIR

Turning to `COc1nc(C)cc(COc2ccccc2CC(Oc2ncnc3sc(-c4ccc(F)o4)c(-c4ccc(OCCN5CCN(C)CC5)c(Cl)c4C)c23)C(=O)O)n1` [Example 160, (2R)-2-{[(5Sa)-5-{3-chloro-2-methyl-4-[2-(4-methylpiperazin-1-yl)ethoxy]phenyl}-6-(5-fluorofuran-2-yl)thieno[2,3-d]pyrimidin-4-yl]oxy}-3-{2-[(2-methoxy-6-methylpyrimidin-4-yl)methoxy]phenyl}propanoic acid], the half-maximal inhibitory concentration (IC50) turned out to be 5e-09 M on Mcl-1 protein and 0.021 µM in assay [1].

Regarding `Cc1cc(COc2ccccc2CC(Oc2ncnc3sc(-c4ccc(F)o4)c(-c4ccc(OCCN5CCN(C)CC5)c(Cl)c4C)c23)C(=O)O)ncn1` [Example 161, (2R)-2-{[(5Sa)-5-{3-chloro-2-methyl-4-[2-(4-methylpiperazin-1-yl)ethoxy]phenyl}-6-(5-fluorofuran-2-yl)thieno[2,3-d]pyrimidin-4-yl]oxy}-3-{2-[(6-methylpyrimidin-4-yl)methoxy]phenyl}propanoic acid], the IC50 was 3.9e-09 M on Mcl-1 protein and 0.081 µM in assay [1].

Regarding `COc1cc(COc2ccccc2CC(Oc2ncnc3sc(-c4ccc(F)o4)c(-c4ccc(OCCN5CCN(C)CC5)c(Cl)c4C)c23)C(=O)O)ncn1` [Example 162, (2R)-2-{[(5Sa)-5-{3-chloro-2-methyl-4-[2-(4-methylpiperazin-1-yl)ethoxy]phenyl}-6-(5-fluorofuran-2-yl)thieno[2,3-d]pyrimidin-4-yl]oxy}-3-{2-[(6-methoxypyrimidin-4-yl)methoxy]phenyl}propanoic acid], the figures for the IC50 (on Mcl-1 protein; in assay [1]) were 9.9e-09 M and 0.027 µM, respectively.

With `Cc1c(-c2c(-c3ccc(F)o3)sc3ncnc(OC(Cc4ccccc4OCc4ccc(F)cn4)C(=O)O)c23)ccc(OCCN2CCN(C)CC2)c1Cl` [Example 163, (2R)-2-{[(5Sa)-5-{3-chloro-2-methyl-4-[2-(4-methylpiperazin-1-yl)ethoxy]phenyl}-6-(5-fluorofuran-2-yl)thieno[2,3-d]pyrimidin-4-yl]oxy}-3-{2-[(5-fluoropyridin-2-yl)methoxy]phenyl}propanoic acid], the IC50 worked out at 1.2e-08 M at Mcl-1 protein and 0.047 µM in assay [1].

Consider `Cc1c(-c2c(-c3ccc(F)o3)sc3ncnc(OC(Cc4ccccc4OCc4cccc(C(F)(F)F)n4)C(=O)O)c23)ccc(OCCN2CCN(C)CC2)c1Cl` [Example 164, (2R)-2-{[(5Sa)-5-{3-chloro-2-methyl-4-[2-(4-methylpiperazin-1-yl)ethoxy]phenyl}-6-(5-fluorofuran-2-yl)thieno[2,3-d]pyrimidin-4-yl]oxy}-3-(2-{[6-(trifluoromethyl)pyridin-2-yl]methoxy}phenyl)propanoic acid], for which the values for the IC50 (at Mcl-1 protein; in assay [1]) were 8.2e-09 M and 0.046 µM, respectively.

Take `Cc1c(-c2c(-c3ccc(F)o3)sc3ncnc(OC(Cc4ccccc4OCc4ccnc(C(F)(F)F)n4)C(=O)O)c23)ccc(OCCN2CCN(C)CC2)c1Cl` [Example 169, (2R)-2-{[(5Sa)-5-{3-chloro-2-methyl-4-[2-(4-methylpiperazin-1-yl)ethoxy]phenyl}-6-(5-fluorofuran-2-yl)thieno[2,3-d]pyrimidin-4-yl]oxy}-3-(2-{[2-(trifluoromethyl)pyrimidin-4-yl]methoxy}phenyl)propanoic acid]: the 50% inhibitory concentration (IC50) at Mcl-1 protein came to 9e-09 M; in assay [1] it was 0.009 µM.

Take `Cc1c(-c2c(-c3ccc(F)o3)sc3ncnc(OC(Cc4ccccc4OCc4ccnc(-c5ccsc5)n4)C(=O)O)c23)ccc(OCCN2CCN(C)CC2)c1Cl` [Example 173, (2R)-2-{[(5Sa)-5-{3-chloro-2-methyl-4-[2-(4-methylpiperazin-1-yl)ethoxy]phenyl}-6-(5-fluorofuran-2-yl)thieno[2,3-d]pyrimidin-4-yl]oxy}-3-(2-{[2-(thiophen-3-yl)pyrimidin-4-yl]methoxy}phenyl)propanoic acid]: the values for the IC50 (at Mcl-1 protein; in assay [1]) were 3.1e-09 M and 0.004 µM, respectively.

Turning to `Cc1c(-c2c(-c3ccc(F)o3)sc3ncnc(OC(Cc4ccccc4OCc4ccnc(OCC(F)(F)F)n4)C(=O)O)c23)ccc(OCCN2CCN(C)CC2)c1Cl` [Example 178, (2R)-2-{[(5Sa)-5-{3-chloro-2-methyl-4-[2-(4-methylpiperazin-1-yl)ethoxy]phenyl}-6-(5-fluorofuran-2-yl)thieno[2,3-d]pyrimidin-4-yl]oxy}-3-(2-{[2-(2,2,2-trifluoroethoxy)pyrimidin-4-yl]methoxy}phenyl)propanoic acid], the results for the IC50 (at Mcl-1 protein; in assay [1]) were 6.3e-09 M and 0.002 µM, respectively.

For the molecule `Cc1c(-c2c(-c3ccc(F)o3)sc3ncnc(OC(Cc4ccccc4OCc4ccncn4)C(=O)O)c23)ccc(OCCN2CCN(C)CC2)c1Cl` [Example 179, (2R)-2-{[(5Sa)-5-{3-chloro-2-methyl-4-[2-(4-methylpiperazin-1-yl)ethoxy]phenyl}-6-(5-fluorofuran-2-yl)thieno[2,3-d]pyrimidin-4-yl]oxy}-3-[2-(pyrimidin-4-ylmethoxy)phenyl]propanoic acid], the IC50 on Mcl-1 protein is 5e-09 M; in assay [1], 0.03 µM.

Consider `Cc1c(-c2c(-c3ccc(F)o3)sc3ncnc(OC(Cc4ccccc4OCc4ccnn4C4CCCC4)C(=O)O)c23)ccc(OCCN2CCN(C)CC2)c1Cl` [Example 183, (2R)-2-{[(5Sa)-5-{3-chloro-2-methyl-4-[2-(4-methylpiperazin-1-yl)ethoxy]phenyl}-6-(5-fluorofuran-2-yl)thieno[2,3-d]pyrimidin-4-yl]oxy}-3-{2-[(1-cyclopentyl-1H-pyrazol-5-yl)methoxy]phenyl}propanoic acid], for which the concentration for half-maximal inhibition (IC50) was 5.7e-09 M at Mcl-1 protein and 0.012 µM in assay [1].

In the case of `Cc1c(-c2c(-c3ccc(F)o3)sc3ncnc(OC(Cc4ccccc4OCc4ccnn4CC4CC4)C(=O)O)c23)ccc(OCCN2CCN(C)CC2)c1Cl` [Example 186, (2R)-2-{[(5Sa)-5-{3-chloro-2-methyl-4-[2-(4-methylpiperazin-1-yl)ethoxy]phenyl}-6-(5-fluorofuran-2-yl)thieno[2,3-d]pyrimidin-4-yl]oxy}-3-(2-{[1-(cyclopropylmethyl)-1H-pyrazol-5-yl]methoxy}phenyl)propanoic acid], the IC50 at Mcl-1 protein was found to be 4.3e-09 M; in assay [1] it was 0.013 µM.

For `CCCn1nccc1COc1ccccc1CC(Oc1ncnc2sc(-c3ccc(F)o3)c(-c3ccc(OCCN4CCN(C)CC4)c(Cl)c3C)c12)C(=O)O` [Example 187, (2R)-2-{[(5Sa)-5-{3-chloro-2-methyl-4-[2-(4-methylpiperazin-1-yl)ethoxy]phenyl}-6-(5-fluorofuran-2-yl)thieno[2,3-d]pyrimidin-4-yl]oxy}-3-{2-[(1-propyl-1H-pyrazol-5-yl)methoxy]phenyl}propanoic acid], the IC50 came to 2.8e-09 M at Mcl-1 protein and 0.02 µM in assay [1].

Turning to `Cc1c(-c2c(-c3ccc(F)o3)sc3ncnc(OC(Cc4ccccc4OCc4cncnc4)C(=O)O)c23)ccc(OCCN2CCN(C)CC2)c1Cl` [Example 190, (2R)-2-{[(5Sa)-5-{3-chloro-2-methyl-4-[2-(4-methylpiperazin-1-yl)ethoxy]phenyl}-6-(5-fluorofuran-2-yl)thieno[2,3-d]pyrimidin-4-yl]oxy}-3-[2-(pyrimidin-5-ylmethoxy)phenyl]propanoic acid], the IC50 on Mcl-1 protein worked out at 7.5e-09 M; in assay [1], 0.037 µM.

Consider `Cc1c(-c2c(-c3ccc(F)o3)sc3ncnc(OC(Cc4ccccc4OCc4cocn4)C(=O)O)c23)ccc(OCCN2CCN(C)CC2)c1Cl` [Example 191, (2R)-2-{[(5Sa)-5-{3-chloro-2-methyl-4-[2-(4-methylpiperazin-1-yl)ethoxy]phenyl}-6-(5-fluorofuran-2-yl)thieno[2,3-d]pyrimidin-4-yl]oxy}-3-[2-(1,3-oxazol-4-ylmethoxy)phenyl]propanoic acid], for which the IC50 worked out at 6.5e-09 M on Mcl-1 protein and 0.063 µM in assay [1].

`Cc1c(-c2c(-c3ccc(F)o3)sc3ncnc(OC(Cc4ccccc4OCCN(C)C)C(=O)O)c23)ccc(OCCN2CCN(C)CC2)c1Cl` [Example 192, (2R)-2-{[(5Sa)-5-{3-chloro-2-methyl-4-[2-(4-methylpiperazin-1-yl)ethoxy]phenyl}-6-(5-fluorofuran-2-yl)thieno[2,3-d]pyrimidin-4-yl]oxy}-3-{2-[2-(dimethylamino)ethoxy]phenyl}propanoic acid]: the figures for the IC50 (at Mcl-1 protein; in assay [1]) were 7.7e-09 M and 0.848 µM, respectively.

Consider `Cc1c(-c2c(-c3ccc(F)o3)sc3ncnc(OC(Cc4ccccc4OCCO)C(=O)O)c23)ccc(OCCN2CCN(C)CC2)c1Cl` [Example 193, (2R)-2-{[(5Sa)-5-{3-chloro-2-methyl-4-[2-(4-methylpiperazin-1-yl)ethoxy]phenyl}-6-(5-fluorofuran-2-yl)thieno[2,3-d]pyrimidin-4-yl]oxy}-3-[2-(2-hydroxyethoxy)phenyl]propanoic acid], for which the results for the IC50 (at Mcl-1 protein; in assay [1]) were 5.4e-09 M and 0.116 µM, respectively.

As for `COCCOc1ccccc1CC(Oc1ncnc2sc(-c3ccc(F)o3)c(-c3ccc(OCCN4CCN(C)CC4)c(Cl)c3C)c12)C(=O)O` [Example 194, (2R)-2-{[(5Sa)-5-{3-chloro-2-methyl-4-[2-(4-methylpiperazin-1-yl)ethoxy]phenyl}-6-(5-fluorofuran-2-yl)thieno[2,3-d]pyrimidin-4-yl]oxy}-3-[2-(2-methoxyethoxy)phenyl]propanoic acid], the IC50 on Mcl-1 protein was found to be 8e-09 M; in assay [1] it was 0.058 µM.

Consider `Cc1c(-c2c(-c3ccc(F)o3)sc3ncnc(OC(Cc4ccccc4OCCOCCO)C(=O)O)c23)ccc(OCCN2CCN(C)CC2)c1Cl` [Example 195, (2R)-2-{[(5Sa)-5-{3-chloro-2-methyl-4-[2-(4-methylpiperazin-1-yl)ethoxy]phenyl}-6-(5-fluorofuran-2-yl)thieno[2,3-d]pyrimidin-4-yl]oxy}-3-{2-[2-(2-hydroxyethoxy)ethoxy]phenyl}propanoic acid], for which the IC50 was 5.5e-09 M at Mcl-1 protein and 0.311 µM in assay [1].

The term IC50 denotes the point on the concentration scale where inhibition reaches its midpoint.

The values are drawn from patent publication US9670227B2, “Thienopyrimidine derivatives, a process for their preparation and pharmaceutical compositions containing them” (LES LABORATOIRES SERVIER, priority 2013, dated 2017).
